Results on 2 compounds are retold here after publication PMC9849758, “Chemically diverse activity-based probes with unexpected inhibitory mechanisms targeting trypsin-like serine proteases” (Frontiers in Chemistry, 2023).

What all share (assay): IC50 determination, spectrophotometric protease assay
What all share (type): biochemical

The target of assay [1] is T1, TLCK-treated pancreatic bovine chymotrypsin (Bos taurus, UniProt P00766).
T1 construct: TLCK-treated pancreatic bovine chymotrypsin (Sigma-Aldrich); purchased Sigma-Aldrich; host or cells: bovine pancreas
The method, then:
(§1) The IC50 values were determined using a spectrophotometric assay. All the experiments were conducted in duplicate. The readout consisted of evaluating the protease-mediated release of the chromophore para-nitroaniline (pNA) or fluorophore 7-amino-4-methyl coumarin (AMC) moieties from the respective substrates. Enzymatic activity was measured for 30 min at 37°C. All compounds were initially screened at three concentrations (10, 1, and .1 μM) to estimate the range of the IC50 value. Those which were able to reduce protease activity by at least 50% at a concentration of 10 μM were submitted to an exact IC50 determination. […] A third independent experiment was performed when the standard deviation of the two independent experiments was higher than […]. IC50 values were obtained by fitting the data with the four-parameter logistics equation using GraphPad Prism 9.
(§2) The conditions for each protease are described as follows, the concentration of substrate used was at the corresponding Km.

Assay [2] deals with T2, Neutrophil Elastase (recombinant neutrophil elastase) (Homo sapiens, UniProt P08246).
T2 construct: purchased Enzo LifeSciences
T2 sequence (P08246 30-267): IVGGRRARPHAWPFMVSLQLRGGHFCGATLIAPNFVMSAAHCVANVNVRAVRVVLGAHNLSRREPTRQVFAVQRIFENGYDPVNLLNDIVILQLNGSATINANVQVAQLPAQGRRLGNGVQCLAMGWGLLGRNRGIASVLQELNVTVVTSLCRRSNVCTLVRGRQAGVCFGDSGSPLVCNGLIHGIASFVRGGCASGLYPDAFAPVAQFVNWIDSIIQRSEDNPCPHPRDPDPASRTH
On the procedure: as §1, §2

Assay [3] has as its target T3, Trypsin-3 (recombinant trypsin-3) (Homo sapiens, UniProt P35030).
T3 construct: purchased R&D
T3 sequence (P35030 1-304): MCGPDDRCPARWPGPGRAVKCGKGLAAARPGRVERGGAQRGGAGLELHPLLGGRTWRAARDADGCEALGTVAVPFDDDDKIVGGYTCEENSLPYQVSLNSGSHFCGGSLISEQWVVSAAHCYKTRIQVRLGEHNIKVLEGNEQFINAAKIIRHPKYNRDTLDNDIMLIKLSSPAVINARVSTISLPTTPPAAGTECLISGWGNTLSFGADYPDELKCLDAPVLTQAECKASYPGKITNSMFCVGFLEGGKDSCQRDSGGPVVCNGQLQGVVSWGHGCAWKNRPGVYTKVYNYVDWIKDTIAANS
The method, then: as §1, §2

For assay [4], the target named is T4, Cathepsin G (cathepsin G human neutrophil) (Homo sapiens, UniProt P08311).
T4 construct: Cathepsin G (cathepsin G human neutrophil, Sigma-Aldrich); purchased Sigma-Aldrich; host or cells: human neutrophil
T4 sequence (P08311 21-255): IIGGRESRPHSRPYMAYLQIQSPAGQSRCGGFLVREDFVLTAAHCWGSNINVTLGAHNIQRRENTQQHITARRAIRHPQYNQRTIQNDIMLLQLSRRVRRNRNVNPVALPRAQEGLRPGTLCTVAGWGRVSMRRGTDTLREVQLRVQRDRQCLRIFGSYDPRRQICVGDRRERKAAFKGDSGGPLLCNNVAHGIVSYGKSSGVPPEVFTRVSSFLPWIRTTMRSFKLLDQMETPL
The method, then: as §1, §2

For assay [5], the target named is T5, uPA (recombinant urokinase plasminogen activator) (Homo sapiens, UniProt P00749).
T5 construct: purchased HYPHEN BioMed
The method, then:
as §1, §2

In assay [6] the target is T6, β-tryptase (recombinant tryptase β-2) (Homo sapiens, UniProt P20231).
T6 construct: purchased EnzoLife Sciences
On the procedure: as §1, §2

Assay [7] has as its target T7, Thrombin (recombinant thrombin) (Homo sapiens, UniProt P00734).
T7 construct: purchased R&D
The method, then:
as §1, §2

Like-named read-outs stand apart in the source and are kept apart here. Bounds are passed on as bounds.

T6 sequence (P20231 31-275): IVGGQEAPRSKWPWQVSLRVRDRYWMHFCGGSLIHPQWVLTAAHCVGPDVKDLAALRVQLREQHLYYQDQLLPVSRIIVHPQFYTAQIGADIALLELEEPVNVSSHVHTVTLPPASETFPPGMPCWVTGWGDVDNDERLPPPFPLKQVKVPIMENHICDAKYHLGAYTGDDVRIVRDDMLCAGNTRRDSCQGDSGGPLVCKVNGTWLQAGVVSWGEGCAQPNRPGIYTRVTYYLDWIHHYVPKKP

In the case of `O=C(CCCCC1SCC2NC(=O)NC21)NCCOCCOCCOCCn1cc(CCCOC(=O)NC(Cc2ccccc2)P(=O)(Oc2ccccc2)Oc2ccccc2)nn1` (centres unmarked) [compound 43], the IC50 (in general, the midpoint of a concentration-inhibition curve) in assay [1] (read-out: ChTryp IC50, biotin probes, 15 min preincubation at 37 °C, mean ± SD) was 2.64 µM; in assay [2] (read-out: NE IC50, biotin probes, 15 min preincubation at 37 °C, mean ± SD), more than 10 µM; in assay [3] (read-out: Trypsin-3 IC50, biotin probes, 15 min preincubation at 37 °C, mean ± SD), more than 10 µM; in assay [4] (read-out: CatG IC50, biotin probes, 15 min preincubation at 37 °C, mean ± SD) it was 2.77 µM; in assay [5] (read-out: uPA IC50, biotin probes, 15 min preincubation at 37 °C, mean ± SD), more than 10 µM; in assay [6] (read-out: β-tryptase IC50, biotin probes, 15 min preincubation at 37 °C, mean ± SD) it was more than 10 µM. Also, the IC50 in assay [7] (read-out: Thrombin IC50, biotin probes, 15 min preincubation at 37 °C, mean ± SD) was more than 10 µM.

`CC(C)C(NC(=O)OCCCc1cn(CCOCCOCCOCCNC(=O)CCCCC[C@H]2NC(=O)N[C@H]2C)nn1)P(=O)(Oc1ccccc1)Oc1ccccc1` (some centres unmarked) [compound 44]: the IC50 in assay [1] was more than 10 µM; in assay [2], 4.7 ± 0.2 µM; in assay [3], more than 10 µM; in assay [4] it was more than 10 µM; in assay [5], more than 10 µM; in assay [6], more than 10 µM. Moreover, in assay [7], the IC50 is more than 10 µM.
